Calls of active or inactive are those of the source.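 Rule for the calls: active = toxic to mouse fibroblast host cells, with IC50 below 50 µM; inactive = the rest.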
The molecules below were run on NIH-3T3 viability, ATP luminescence (assay: murine fibroblast viability via ATP level – cell-based, murine fibroblasts, cytotoxicity control for Trypanosoma cruzi inhibitor project (AID 1159561)). Conditions: 4 days.

| Compound | IC50 |
| --- | --- |
| CNc1cc(C)nc(C2CN(C(=O)c3n[nH]c4ccccc34)CCO2)c1 (stereo not drawn) | > 50 µM (inactive) |
| O=C(N1CCc2ccccc2CC1)C1(C(=O)N2CCC(n3c(=O)[nH]c4ncccc43)CC2)CC1 | 40 µM |
| O=C(Nc1nc(-c2ccc(S(=O)(=O)N3CCOCC3)cc2)cs1)c1ccc([N+](=O)[O-])cc1 | 25 µM |
| COc1cccc(-c2cc(C(F)(F)F)nc(-n3ccc([N+](=O)[O-])n3)n2)c1 | > 50 µM (inactive) |
| O=C(CSc1ccc(-c2ccccn2)nn1)Nc1ccc(Cl)cc1 | 32 µM |
| CCN(CC)S(=O)(=O)c1ccc(Cn2nc(C(=O)Nc3ccncn3)c3ccccc32)cc1 | 40 µM |
| Cc1sc(C)c(C(F)(F)F)c1CNCCCNc1cc(=O)c2ccccc2[nH]1 | 10 µM |
| NC(=O)c1ccccc1Nc1nc(NC2CCCCC2)nc2[nH]ccc12 | 25 µM |
| O=C(Cn1cnc([N+](=O)[O-])n1)Nc1ccc(Cl)cc1C(=O)c1ccccc1 | > 50 µM (inactive) |
| O=C(Nc1cccc(F)c1)N1CCC(Oc2cccc(-c3cccnc3)c2)CC1 | 40 µM |
| O=C(NCC1CCCCC1)c1cnns1 | > 50 µM (inactive) |
| CCC(=O)Nc1ccc(-c2nc3ccc(Cl)cc3[nH]2)cc1 | > 50 µM (inactive) |
| CN(C)c1ccc(-c2cc3nccnc3c(OC[C@H]3CCCNC3)n2)cn1 | 16 µM |
| O=c1[nH]ccc2ccc(-c3ccncc3)cc12 | > 50 µM (inactive) |
| COc1cccc(C(=O)[C@H]2C[C@@H]2CN(Cc2cccnc2)Cc2cccnc2)c1 | 20 µM |
| CN(C)CCN(C)Cc1ccc(F)cc1NS(=O)(=O)c1ccc(Cl)c(Cl)c1 | 16 µM |
| Cc1ccc(S(=O)(=O)Cn2nnnc2C(c2cccnc2)N2CCN(c3ccccc3)CC2)cc1 (stereo not drawn) | 32 µM |
| Clc1ccc(C(CC2CCCCO2)Cn2cncn2)c(Cl)c1 (stereo not drawn) | 40 µM |
| CN(Cc1nc2ccccc2s1)C(=O)C=Cc1cc2ccccc2o1 | 32 µM |
| CC1=C(C(=O)Nc2ccc(Cl)cc2)C(c2ccncc2)n2ncc(C(=O)Nc3ccccc3)c2N1 (stereo not drawn) | 32 µM |
| Clc1ccc(Sc2cnccc2N2CCOCC2)cc1 | > 50 µM (inactive) |
| CC1CN(S(=O)(=O)c2ccc(NC(=O)c3cc(C4CC4)nc4c3cnn4C(C)C)cc2)CC(C)O1 (stereo not drawn) | > 50 µM (inactive) |
| Cc1cccc(NS(=O)(=O)c2cnc3sc(C)cn3c2=O)c1 | > 50 µM (inactive) |
| O=C(Nc1ccc(Br)c(Cl)c1)Nc1ccc2c(c1)OCO2 | 16 µM |
| O=c1cc(NCCCNC2CCOc3c(I)cc(Cl)cc32)[nH]c2ccccc12 (stereo not drawn) | 25 µM |

| Compound | IC50 |
| --- | --- |
| CC1(C)CCC(=Cc2ccc(Cl)cc2)CC1(O)Cn1ccnc1 (stereo not drawn) | 16 µM |
| O=C(CSc1ccc(F)cc1)N[C@@H](Cc1cnc[nH]1)C(=O)NCCc1ccccc1 | 13 µM |
| CC(=O)Nc1nc(-c2cc(C)ccc2C)c(C)s1 | 25 µM |
| CCN(CC)S(=O)(=O)c1ccc(C(=O)Nc2cc(C)nn2-c2nc(C)c(C)c(=O)[nH]2)cc1 | > 50 µM (inactive) |
| CCC(=O)Nc1ccc(C(=O)Nc2ccccc2-c2ccccc2)cc1 | > 50 µM (inactive) |
| COc1ccc(NS(=O)(=O)c2cc(-c3cc(C)[nH]n3)ccc2C)cc1OC | > 50 µM (inactive) |
| COc1cccc(CCNC(=O)C(c2cn[nH]c2)N2CCN(c3ccc(Cl)cc3)CC2)c1 (stereo not drawn) | 32 µM |
| O=C(c1cnn(-c2ccccc2)n1)N1CCCC(n2ccnc2)C1 (stereo not drawn) | 20 µM |
| COc1ccc(S(=O)(=O)NC(C)C)cc1Nc1ncc(-c2cccc(F)c2)cn1 | 5 µM |
| O=C(Nc1ccc(C(=O)N2CCCC2c2ccc3c(c2)OCCCO3)cc1)c1ccco1 (stereo not drawn) | > 50 µM (inactive) |
| CCC1Oc2cc(S(=O)(=O)N(C)CC(=O)N3CCc4ccccc4C3)c(C)cc2NC1=O (stereo not drawn) | > 50 µM (inactive) |
| N#Cc1ccc(S(=O)(=O)N2CCN(Cc3cccc(-c4ccncc4)c3)CC2)cc1 | 13 µM |
| Cc1c([N+](=O)[O-])c(C(=O)Nc2sc3c(c2C#N)CCC(C)C3)nn1C (stereo not drawn) | 13 µM |
| CS(=O)(=O)c1cccc(CNC(=O)c2cncc(N3CCN(c4ccc(F)cc4)CC3)c2)c1 | 25 µM |
| O=S(=O)(NCC(c1cccnc1)N1CCN(c2ccccc2F)CC1)c1ccc(F)cc1 (stereo not drawn) | > 50 µM (inactive) |
| O=c1[nH]cnc2c([C@@H]3O[C@H](CO)[C@@H](O)[C@H]3O)[nH]nc12 | > 50 µM (inactive) |
| Cc1cc(C#N)c([N+](=O)[O-])cc1Br | 20 µM |
| c1cncc(CN(Cc2ccco2)Cc2cn[nH]c2-c2cccs2)c1 | 32 µM |
| CC(=Cc1ccccc1)CN1CCC(=O)N(Cc2cccnc2)CC1 | > 50 µM (inactive) |
| CC(C)Oc1cccc(N2CCC(C(=O)N3CCCN(C(C)C)CC3)CC2)c1 | 32 µM |
| COc1ccc(S(=O)(=O)Nc2ccccc2OC)cc1NC(=O)CCCc1c[nH]c2ccccc12 | > 50 µM (inactive) |
| O=C(NCCNc1noc(-c2ccc([N+](=O)[O-])cc2)n1)c1ccc(Cl)cc1 | > 50 µM (inactive) |
| CCCn1c(NC(=O)Cc2ccc(Cl)cc2)nc2ccccc21 | > 50 µM (inactive) |
| O=C(NCc1nnc2n1CCCCC2)c1ccc(-c2ccc(F)cc2)o1 | > 50 µM (inactive) |
| Cc1ccc(S(=O)(=O)Nc2ccc(CN3CCN(C(=O)c4cccc(C#N)c4)CC3)cc2)cc1 | > 50 µM (inactive) |

| Compound | IC50 |
| --- | --- |
| O=C(Nc1cccc(Cl)c1)N1CCCCC1c1cccnc1 (stereo not drawn) | 32 µM |
| Cc1ccc(C)c(OC2CCN(C(=O)C(C)n3ccnc3)CC2)c1 (stereo not drawn) | > 50 µM (inactive) |
| COc1ccc(-c2ccc3nnc(-c4ccc(O)c(OC)c4)n3c2)cn1 | 50 µM |
| COc1ccc(C2CC(c3ccccc3Cl)=NN2C(=O)CNC(=O)C2CCC2)cc1 (stereo not drawn) | 32 µM |
| CN(Cc1ccc(C(N)=O)cc1)C(c1ccc(F)cc1)c1cccnc1 (stereo not drawn) | 32 µM |
| CC(=O)Nc1ccc(-c2noc(CC3CCCN(Cc4cccc(F)c4C)C3)n2)cc1 (stereo not drawn) | 25 µM |
| CC(C)Nc1nccc(-c2c(-c3ccc(F)cc3)ncn2C2CCOCC2)n1 | > 50 µM (inactive) |
| CC(C)c1cc(C(=O)N2CCCC(c3cc4ncccc4[nH]3)C2)on1 (stereo not drawn) | 20 µM |
| O=S(=O)(c1cccc(CSc2nnc(-c3ccc4c(c3)OCO4)o2)c1)N1CCOCC1 | 16 µM |
| O=C(c1cc2cc(Cl)ccc2[nH]1)N1CCCCC1c1cccnc1 (stereo not drawn) | 40 µM |
| CCCCNc1nccc(-c2c(-c3ccc(F)cc3)nn3c(N4CCOCC4)cccc23)n1 | 10 µM |
| CN(Cc1nnnn1C1CCN(Cc2ccc(-n3ccnc3)cc2)CC1)c1ccc(F)cc1F | 25 µM |
| O=C(CCCn1cnc([N+](=O)[O-])n1)Nc1cccc(Cl)c1 | > 50 µM (inactive) |
| Cc1cc(C)nc(N2CCC(N(Cc3cccnc3)C(=O)c3cccc(C#N)c3)CC2)n1 | 7.9 µM |
| COc1cc(NC(=O)Nc2cccc(CNC(=O)OC3CCCCC3)c2)ccc1-c1cnco1 | 10 µM |
| O=C(CN(c1cccc(C(F)(F)F)c1)S(=O)(=O)c1ccc(Cl)cc1)NCc1ccc(F)c(F)c1 | 32 µM |
| Clc1ccc(OCCN2CCCCC2c2cccnc2)c(Cl)c1 (stereo not drawn) | 25 µM |
| COc1ccc2nc(N(Cc3cccnc3)C(=O)C3CCC3)sc2c1 | 50 µM |
| Cc1ccccc1OCC(=O)N1CCCN(c2cccnn2)CC1 | 50 µM |
| COc1ccccc1C=CCN1C[C@H]2CCC[C@@H](C1)C2(O)c1cccnc1 (stereo partly drawn) | 32 µM |
| COc1ccc(-c2nc3ncccc3o2)cc1NC(=O)c1cccs1 | > 50 µM (inactive) |
| CC1(Oc2cncc(Cl)c2)CCN(Cc2cc3ccccc3[nH]2)C1 (stereo not drawn) | 10 µM |
| O=C(Nc1ccc(Br)cn1)c1ccc(Cn2cnc([N+](=O)[O-])n2)cc1 | > 50 µM (inactive) |

Reference: PubChem BioAssay AID1159561 (GlaxoSmithKline (GSK), 2015)
